The results in this text go back to ChEMBL document CHEMBL1150441.

The species entered for test [1] is Rattus norvegicus. In words: Effect on uterine weight as tissue specific estrogen agonist assay in ovariectomized rat model: Not significant. It is filed as functional, organism-based.
In test [2] the test system is Rattus norvegicus. In words: Effect on uterine weight as tissue specific estrogen agonist assay in ovariectomized rat model at 0.1 mg/kg dose: Not significant. The test is classed as functional, organism-based. Also noted: dose 0.1 mg/kg.
Test [3] concerns the target T1, Estrogen receptor (Rattus norvegicus) (UniProt P06211+Q62986). As to the kind of experiment: Effect on uterine weight as tissue specific estrogen agonist assay in ovariectomized rat model: significant increase at <=10 mg/kg dose. The test is classed as functional, organism-based. The settings on record: filed as agonist.
The target of test [4] is T1, Estrogen receptor (Rattus norvegicus). In words: Effect on serum cholesterol level as tissue specific estrogen agonist assay in ovariectomized rat model: significant decrease at <=10 mg/kg dose. It is filed as functional, organism-based. To be noted: filed as agonist.
Test [5] is filed under the species Rattus norvegicus. As to the kind of experiment: Effect on serum cholesterol level as tissue specific estrogen agonist assay in ovariectomized rat model: Not significant. The test is classed as functional, organism-based.
In another test the test system is MCF7. As to the kind of experiment: Inhibition of MCF-7 cell proliferation stimulated by 10e-12 M estradiol: Not active. The test is classed as functional, cell-based. To be noted: Homo sapiens.
For test [6], the target named is T1, Estrogen receptor (Rattus norvegicus). In words: Effect on serum cholesterol level as tissue specific estrogen agonist assay in ovariectomized rat model: significant decrease at <10 mg/kg dose. To be noted: filed as agonist. The test is classed as functional, organism-based.

Activity calls are given as the source filed them. The calls are words filed in the database; no cut-off is given here.

For the compound `CCc1sc2cc(O)ccc2c1C(=O)c1ccc(OCCN2CCCCC2)cc1`, in the test listed under Rattus norvegicus [1], the result was inactive.

Consider `O=C(c1ccc(OCCN2CCCCC2)cc1)c1c(C2CCCC2)sc2cc(O)ccc12`, for which the outcome in the test with Rattus norvegicus [2] was inactive.

Turning to `CCc1sc2cc(O)ccc2c1Cc1ccc(OCCN2CCCCC2)cc1`, the Activity entry in test [3] and in test [4] was “Agonist” in each case.

In the case of `Oc1ccc2c(Cc3ccc(OCCN4CCCCC4)cc3)c([C@H]3CC[C@H](O)CC3)sc2c1`, the result in the test on Rattus norvegicus [2] was inactive.

For `Oc1ccc2c(C(O)c3ccc(OCCN4CCCCC4)cc3)c(C3CCCC3)sc2c1` (configuration not stated), the result in the test filed under Rattus norvegicus [5] was inactive.

Regarding `Oc1ccc2c(Cc3ccc(OCCN4CCCCC4)cc3)c(C3CCCC3)sc2c1`, the outcome in the test on Rattus norvegicus [2] was inactive. Besides, the Activity entry in test [4] is “Agonist”.

Regarding `CC(C)c1sc2cc(O)ccc2c1Cc1ccc(OCCN2CCCCC2)cc1`, the Activity entry in test [3] and in test [4] was “Agonist” throughout.

Take `Cc1sc2cc(O)ccc2c1Cc1ccc(OCCN2CCCCC2)cc1`: the outcome in the test listed under Rattus norvegicus [1] and in the test filed under Rattus norvegicus [5] was inactive.

As to `C[C@]12CC[C@@H]3c4ccc(O)cc4CC[C@H]3[C@@H]1CC[C@@H]2O`, in the test on MCF7, the Dose entry is “inactive”.

Regarding `CC(C)c1sc2cc(O)ccc2c1C(=O)c1ccc(OCCN2CCCCC2)cc1`, the result in the test on Rattus norvegicus [2] was inactive.

Turning to `Oc1ccc2c(Cc3ccc(OCCN4CCCCC4)cc3)c(C3CCCCC3)sc2c1`, the Activity result in test [3] and in test [6] was “Agonist” throughout.

With `Cc1sc2cc(O)ccc2c1C(=O)c1ccc(OCCN2CCCCC2)cc1`, the result in the test filed under Rattus norvegicus [1] was inactive.
